Assays:
[1] = system: λDNA; assay: Fluorescence enhancement of dye with λDNA; type: binding; details: for Fluorescence relative to TO / Fluorescence λ DNA/ssDNA: 0.8 μM dye, 3.2 μM DNA, one minute; for Ratio λ DNA/ss: fluorescence λ DNA vs ss-DNA; for Relative Fluorescent Intensity: λ DNA, TO = 1.0
Procedure: (§1) Stock solutions (8 mM) of each dye were prepared by dissolving each compound in dimethylsulfoxide (DMSO). Stock dye solutions were diluted to a desired concentration in tris-EDTA (TE) buffer (10 mM Tris, 1 mM EDTA, pH 8.0) immediately prior to use.
(§2) Stock solutions of λDNA and 40mer synthetic oligonucleotides (dsDNA and ssDNA), each at a concentration of 40 μM, were prepared in TE buffer. All DNA concentrations described are in base pairs of nucleotides. The DNA stock solutions were diluted to a desired concentration in TE buffer before being mixed with diluted dye solutions.
(§3) Fluorescence enhancement measurements of each dye were obtained by incubating dyes with λDNA, 40mer dsDNA, or 40mer ssDNA at a final concentration of 0.8 μM dye and 3.2 μM DNA for one minute. Fluorescence scans of the samples were performed with excitation wavelengths corresponding to the absorption maxima of the dyes. The resulting fluorescence intensities were compared to fluorescence intensities of Thiazole Orange (TO) and a compound equivalent to SYBR Green without the side chain (V02-06101), shown below,
(§4) [drawing 15] binding to λDNA, 40mer dsDNA, or 40mer ssDNA at a final concentration of 0.8 μM TO and 3.2 μM DNA for one minute, the same as for the tested dyes. The discrimination ratio between dsDNA and ssDNA was calculated by comparing the fluorescence intensities.

[2] = system: 40mer dsDNA; assay: Fluorescence enhancement of dye with 40mer dsDNA; type: binding; details: for Relative Fluorescent Intensity: 40-mer ds-DNA, TO = 1.0; for Ratio ds/ss: fluorescence 40-mer ds-DNA vs ss-DNA
Procedure: as §1, §2, §3, §4

[3] = system: rRNA; assay: Fluorescence of dye with rRNA; type: binding; details: for Ratio rRNA/ds: fluorescence rRNA vs 40-mer ds-DNA; for Ratio rRNA/ss: fluorescence rRNA vs 40-mer ss-DNA
[4] = Absorption spectra of dye alone; type: physicochemical; details: for ε: in M-1·cm-1 (unit assumed)
Procedure: as §1
[…] […] Optical densities were determined at the absorbance maxima and the extinction coefficients were calculated using Beer's law.

[5] = system: RNA; assay: Low range RNA quantification by fluorescence; type: binding; details: low range RNA assay
Procedure: Detecting and quantifying small amounts of RNA is important in many determinations such as quantitating in vitro transcription yields and quantitating RNA concentration before performing RNA containing assays. RNA is typically quantitated by determining absorbance at 260 nm (λ260), but disadvantages include protein interference, DNA absorbance, and the need for high concentration of RNA (>4 μg/ml). More sensitive fluorescence methods must be used to quantitate small amounts of RNA. A widely used RNA quantitation dye is RiboGreen® (Invitrogen), where 1 ng/ml of RNA can be detected and quantitated with a standard fluorometer, fluorescence microplate reader, or filter fluorometer.
In one embodiment, the V11-03001 compound may be used to quantitate RNA.

[6] = system: 110 bp and 925 bp fragments from human β-actin gene, 309 bp fragment from human Survivin gene, 413 bp fragment from human integrin α5 gene; assay: qRT-PCR detection of longer PCR amplicons; type: biochemical; details: 20 ng to 60 ng dye; 110, 309, 413, 925 bp amplicons
Procedure: Compound V02-07027 was also used to detect the formation of longer PCR amplicons using qRT-PCR: The following by fragments were used: 110 bp and 925 bp fragments from human β-actin gene, a 309 bp fragment from human Survivin gene, and a 413 bp fragment from human integrin α5 gene. Real time PCR was performed on a Stratagene® MX3000 (Stratagene, La Jolla Calif.) instrument using an excitation wavelength of 492 nm and an emission wavelength of 516 nm. Each amplification reaction (25 μl) contained 10 ng or 100 ng of human Genomic DNA, 200 μM of each dNTP, 1.5 mM MgCl2, 50 mM KCL, 10 mM Tris-HCl, 400 nM of each of forward and reverse primers, and 2.5 units of Taq DNA polymerase (Thermo Fisher Scientific (Milwaukee Wis.)). Varying amounts of V02-07027 or a dye such as SYBR® Green (Invitrogen) were added to the reaction mix. Reactions were performed in triplicate and the data points represented the average signal.

| λex ([4]; TE Buffer, 8 μM dye) | ε ([4]; TE Buffer, 8 μM dye) | λex ([4]; Ethanol) | ε ([4]; Ethanol) | Structure (SMILES) | Fluorescence relative to TO [1] | Fluorescence λ DNA/ssDNA [1] | Ratio λ DNA/ss [1] | Relative Fluorescent Intensity [1] | Relative Fluorescent Intensity [2] | Ratio ds/ss [2] | Ratio rRNA/ds [3] | Ratio rRNA/ss [3] | fluorescence enhancement when bound with RNA [3] | fluorescence enhancement among all the dyes studied ([1]; comparable to SYBR Green dye) | fluorescence intensities versus RiboGreen [5] | relationship between fluorescence intensity and total RNA concentration ([5]; FIG. 10) | binding to amplified DNA fragments [6] |
| --- | --- | --- | --- | --- | --- | --- | --- | --- | --- | --- | --- | --- | --- | --- | --- | --- | --- |
| 494 nm | 73,000 |  |  | CCCN(CCCN(C)C)C1=C/C(=C\c2sc3ccccc3[n+]2C)c2ccccc2N1c1ccccc1 [SYBR Green, reference compound] | 10.6 | 8.3 | 8.3 | 10.6 | 15.0 | 7.5 | 0.3 | 1.0 |  |  |  |  |  |
| 492 nm | 35,925 | 499 nm | 72,000 | CCN(CC)c1ccc2c(C=C3Oc4ccccc4N3CC)cc(C(C)(C)C)[o+]c2c1 [Dye V02-06136] | 0.17 | 1 | 1 | 0.17 | 0.3 | 1.8 |  |  |  |  |  |  |  |
| 496 nm | 27,418 | 498 nm | 46,000 | CCN(CC)c1ccc2c(N(C)CCCN(C)C)cc(/C=C3\Sc4ccccc4N3C)[o+]c2c1 [Dye V02-07108] | 3.1 | 1.8 | 1.9 | 3.1 | 3.5 | 1.4 | 0.8 | 1.1 |  |  |  |  |  |
| 455 nm | 40,321 | 480 nm | 83,000 | CCN(CC)c1ccc2c(/C=C3\Sc4ccccc4N3C)cc(N3CCN(CCO)CC3)[o+]c2c1 [Dye V13-01184] | 5.3 | 6.1 | 2.0 | 5.3 | 6.1 | 1.4 | 1.0 | 1.4 | significant fluorescence enhancement |  |  |  |  |
| 484 nm | 28,355 | 492 nm | 49,000 | CCN1c2cc3[o+]c(N(C)CCCN(C)C)cc(/C=C4\Sc5ccccc5N4C)c3cc2C(C)=CC1(C)C [Dye V12-02144] | 3.6 | 2.8 | 2.0 | 1.7 | 2.7 | 2.1 | 0.7 | 1.5 |  |  |  |  |  |
|  |  |  |  | C[n+]1c(/C=C2\C=CN(c3ccccc3)c3ccccc32)sc2ccccc21 [Dye V02-06101, reference compound] | 0.8 | 4.1 |  |  |  |  |  |  |  |  |  |  |  |
| 487 nm | 65,269 | 490 nm | 95,000 | CCN(CC)c1ccc2c(/C=C3\Sc4ccccc4N3C)cc(N3CC[N+](C)(CCO)CC3)[o+]c2c1 [Dye V11-03001] |  |  | 1.8 | 8.7 | 11.1 | 1.7 | 0.6 | 1.0 | significant fluorescence enhancement | strongest fluorescence enhancement | comparable to those using RiboGreen® | linear relationship |  |
| 515 nm | 46,625 | 530 nm | 85,000 | CCN(CC)c1ccc2c(C=C3Sc4ccccc4N3CC)cc(C(C)(C)C)[o+]c2c1 [Dye V02-06124] | 0.5 | 1.6 | 1.6 | 0.5 | 0.3 | 1.2 |  |  |  |  |  |  |  |
| 501 nm | 52,773 | 501 nm | 77,000 | CN1C(=Cc2cc[n+](C)c3ccccc23)Sc2ccccc21 [TO, Thiazole Orange, reference compound] | 1 | 3.3 | 5.6 | 1.0 | 1.0 | 3.5 | 0.8 | 2.3 |  |  |  |  |  |
| 477 nm | 16,940 | 481 nm | 25,600 | CCN(CC)c1ccc2c(/C=C3\Sc4ccccc4N3C)cc(N(C)CCC[N+](C)(C)C)[o+]c2c1 [Dye V11-02190] |  |  | 3.1 | 1.9 | 1.7 | 1.9 | 0.7 | 1.4 |  |  |  |  |  |
| 475 nm | 39,987 | 477 nm | 60,000 | CCN(CC)c1ccc2c(/C=C3\Sc4ccccc4N3C)cc(N(C)CCCN(C)C)[o+]c2c1 [Dye V02-07027] | 3.6 | 2.8 | 2.8 | 3.6 | 5.3 | 2.6 |  |  |  |  |  |  | bound to amplified DNA fragments, generating a fluorescent signal |
| 543 nm | 25,013 | 585 nm | 48,000 | CCN(CC)c1ccc2c(c1)O/C(=C\c1cc(N(C)CCCN(C)C)[o+]c3cc(N(CC)CC)ccc13)C=C2C [Dye V13-01026] | 0.9 | 1.4 | 1.4 | 0.9 | 1.0 | 0.7 |  |  |  |  |  |  |  |
| 524 nm | 19,668 | 550 nm | 55,000 | CCN(CC)c1ccc2c(/C=C3\Sc4ccccc4N3CC)cc(-c3ccccc3)[o+]c2c1 [Dye V02-06187] | 0.7 | 6.7 | 5.2 | 0.7 | 0.5 | 2.1 |  |  |  |  |  |  |  |
| 515 nm | 37,365 | 522 nm | 50,000 | CCN(CCCN(C)C)c1ccc2c(/C=C3\Sc4ccccc4N3CC)cc(C(C)(C)C)[o+]c2c1 [Dye V02-07015] | 4.0 | 3.7 | 3.7 | 4.0 | 4.0 | 2.3 |  |  |  |  |  |  |  |
|  |  | 464 nm | 43,000 | CCN1C(=Cc2cc(-c3ccccc3)[o+]c3cc(OC)ccc23)Oc2ccccc21 [Dye V02-06135] | None | None |  |  |  |  |  |  |  |  |  |  |  |
| 480 nm | 18,850 | 488 nm | 43,000 | CCN1C(=Cc2cc(-c3ccccc3)[o+]c3cc(OC)ccc23)Sc2ccccc21 [Dye V02-06132] | None | None |  |  |  |  |  |  |  |  |  |  |  |

Source: patent publication US8378115B2, “Monomethine dyes” (Thermo Fisher Scientific (Milwaukee) LLC, priority 2007, dated 2013)
